# Results: patent EP1576946A1, “Use of inhibitors of gram-positive cocci in deodorants and antiperspirants” (Henkel Kommanditgesellschaft auf Aktien, priority 2004, dated 2005)
# System: Anaerococcus octavius (Peptostreptococcus octavius)
# Test: Filter paper/surface method: inhibition zone and growth under the filter disc
# Assay type: cell-based
# Description: Weiterhin wurden die Wirkstoffe mit Hilfe des Filterpapier/Oberflächenverfahrens vermessen. Der Testkeim Anaerococcus octavius (Peptostreptococcus octavius) war erhältlich als DSM 10024; er wurde 5 Tage bei 37 °C vorinkubiert. 0,3 ml Wirkstofflösung bzw. 0,3 g wirkstoffhaltiges Produkt wurden auf eine Filterpapierscheibe mit einem Durchmesser von 4,5 cm aufgebracht, anschließend wurde die Filterpapierscheibe auf den bakterienhaltigen Agar gelegt. Nach der Inkubationszeit wurde die Größe des gebildeten Hemmhofes vermessen. Bei den Lösungen, für die kein Hemmhof detektiert werden konnte, weil der Wirkstoff nicht in den Agar penetriert war, wurde zusätzlich das Wachstum unter den Filterpapierscheiben beurteilt.
# [1] = 22 Gew.-% Aktivsubstanz, medium Wasser, pH after adjustment ca. 4
# [2] = 8 Gew.-% Aktivsubstanz, medium Wasser/ Ethanol (30 Vol.-% / 70 Vol.-%), pH after adjustment 4,2
# [3] = 20 Gew.-% Aktivsubstanz, medium Wasser, pH after adjustment 4,2
# [4] = 0,5 Gew.-% Aktivsubstanz, medium Wasser, pH tel quel 6,5, after addition of Citronensäure 5,1
molecule,measurement,setting,value
"O=C(O)CCCCCCC/C=C\CCCCCCCC(=O)O [Arlatone DCA, 9(Z)-Octadecendicarbonsäure]",Wachstum unter der Filterscheibe,"2 Gew.-% Aktivsubstanz, medium Ethanol",kein Wachstum
same,zone of inhibition at 2 %,"Anaerococcus octavius, 2 Gew.-% Aktivsubstanz, medium Ethanol, read-out: Durchmesser des Hemmhofes",4 mm
"CCCCC(CC)COCC(O)CO (stereo not drawn) [Sensiva SC 50, α-Mono-(2-ethylhexyl)glycerinether]",Wachstum unter der Filterscheibe,"0,5 Gew.-% Aktivsubstanz, medium Wasser/ Ethanol (50 Vol.-% / 50 Vol.-%), pH tel quel 6,65, after addition of Citronensäure 5,1",deutlich gehemmt
same,zone of inhibition at 0.5 %,"Anaerococcus octavius, read-out: Durchmesser des Hemmhofes",0 mm
Aluminium Zirconium Tetrachlorohydrex Gly [REACH AZP 908 (Powder)],Durchmesser des Hemmhofes,[1],0 mm
same,Wachstum unter der Filterscheibe,[1],kein Wachstum
Aluminium chlorohydrate,Durchmesser des Hemmhofes,[2],0 mm
same,Wachstum unter der Filterscheibe,[2],deutlich gehemmt
same,Durchmesser des Hemmhofes,[3],0 mm
same,Wachstum unter der Filterscheibe,[3],leicht gehemmt
Zinkgluconat,Durchmesser des Hemmhofes,[4],0 mm
same,Wachstum unter der Filterscheibe,[4],deutlich gehemmt
